Data reported in PMC7664637, “In Vitro and In Silico Evaluation of Anticancer Activity of New Indole-Based 1,3,4-Oxadiazoles as EGFR and COX-2 Inhibitors” (Molecules, 2020).

Columns and labels:
[1] = system: A549 human lung adenocarcinoma cell line; experiment: MTT cytotoxicity assay, A549; details: A549, 48 h, read-out: IC50 A549 Cell Line
Method: (§2) At the end of this period, supernatants were removed, and 100 μL DMSO was added to each well to solubilize the formazan crystals. The absorbance of the solution was determined on an Infinite M1000 plate reader (Tecan, Mannedorf, Switzerland) at a wavelength of 550 nm with background subtraction at 630 nm.

[2] = system: Jurkat human leukemic T-cells; experiment: MTT cytotoxicity assay, Jurkat cells (tumor selectivity); details: 48 h, read-out: IC50 Jurkat Cells
Method: as §2

[3] = system: peripheral blood mononuclear cells (PBMCs); experiment: MTT cytotoxicity assay, PBMCs (tumor selectivity); details: Homo sapiens, PBMC, 48 h, read-out: IC50 PBMCs
Method: as §2

[4] = system: HCT116 human colorectal carcinoma cell line; experiment: MTT cytotoxicity assay, HCT116; details: HCT-116, 48 h, read-out: IC50 HCT-116 Cell Line
Method: as §2

[5] = system: A375 human melanoma cell line; experiment: MTT cytotoxicity assay, A375; details: A-375, 48 h, read-out: IC50 A375 Cell Line
Method: as §2

PDGFRβ = biological target: T1, PDGFRβ (Homo sapiens, UniProt P09619); experiment: Kinase profiling assay (ADP-Glo), PDGFRβ; type: biochemical; details: 1 h, room temperature
T1 construct: purchased Promega Corporation
Method: (§1) The kinase profiling assay protocol was applied according to the manufacturer’s instructions (Promega Corporation, Madison, WI, USA) with modification. […] Then, the reaction of the kinase was performed using 2 µL of compound solution at varying concentrations (0.1–100 µM), 4 µL of kinase working stock, and 4 µL of ATP/substrate working stock in the 384-well plate. After 1 h of incubation at room temperature, the activity of kinase was detected using ADP-Glo kinase assay (Promega Corporation, Madison, WI, USA), and kinase inhibitory activity of compounds in dose–response mode was measured by an Infinite M1000 luminescence plate reader (Tecan, Groding, Austria).

HER4 = biological target: T2, HER4 (Homo sapiens, UniProt Q15303); experiment: Kinase profiling assay (ADP-Glo), HER4; type: biochemical; details: 1 h, room temperature
T2 construct: purchased Promega Corporation
Method: as §1

EGFR = biological target: T3, EGFR (Homo sapiens, UniProt P00533); experiment: Kinase profiling assay (ADP-Glo), EGFR; type: biochemical; details: 1 h, room temperature
T3 construct: purchased Promega Corporation
Method: as §1

HER2 = biological target: T4, HER2 (Homo sapiens, UniProt P04626); experiment: Kinase profiling assay (ADP-Glo), HER2; type: biochemical; details: 1 h, room temperature
T4 construct: purchased Promega Corporation
Method: as §1

KDR = biological target: T5, KDR (Homo sapiens, UniProt P35968); experiment: Kinase profiling assay (ADP-Glo), KDR; type: biochemical; details: 1 h, room temperature
T5 construct: purchased Promega Corporation
Method: as §1

HCT116 cells = experiment: Detection of cell death, Hoechst 33342/annexin V/ethidium homodimer III staining; type: cell-based, human; details: 10 μM, 12 h
Method: The cells were then briefly washed twice with 1× binding buffer, a staining solution containing 50 μL of 1× binding buffer, 5 μL of FITC-Annexin V solution, 5 μL of ethidium homodimer III solution, and 5 μL of Hoechst 33342 solution and incubated for 15 min at room temperature in the dark. Then, cells were washed with 1× binding buffer and analyzed by a Biorevo Fluorescence BZ-9000 all-in-one fluorescence microscope (Keyence, Osaka, Japan). Numbers of healthy cells (Hoechst 33342), apoptotic cells (Annexin V), late apoptotic or necrotic cells (Annexin V and Ethidium homodimer III), and necrotic cells (Ethidium homodimer III) were counted, as previously described.
(B) A total of approximately 100 stained cells were selected randomly in each experiment of (A) and were classified into 4 types: “alive” (blue), “apoptosis” (green), “necrosis or late apoptosis” (both green and red), and “necrosis” (red). […] Data from three independent experiments are shown as means ± standard deviations and p values were determined using Student’s test.

PDGFRα = biological target: T6, PDGFRα (Homo sapiens, UniProt P16234); experiment: Kinase profiling assay (ADP-Glo), PDGFRα; type: biochemical; details: 1 h, room temperature
T6 construct: purchased Promega Corporation
Method: as §1

IGF1R = biological target: T7, IGF1R (Homo sapiens, UniProt P08069); experiment: Kinase profiling assay (ADP-Glo), IGF1R; type: biochemical; details: 1 h, room temperature
T7 construct: purchased Promega Corporation
Method: as §1

InsR = biological target: T8, InsR (Homo sapiens, UniProt P06213); experiment: Kinase profiling assay (ADP-Glo), InsR; type: biochemical; details: 1 h, room temperature
T8 construct: purchased Promega Corporation
Method: as §1

COX-1 = biological target: T9, COX-1 (Ovis aries, UniProt P05979); experiment: In vitro COX inhibition assay (COX (ovine/human) inhibitor screening kit), COX-1
T9 sequence (P05979 25-600): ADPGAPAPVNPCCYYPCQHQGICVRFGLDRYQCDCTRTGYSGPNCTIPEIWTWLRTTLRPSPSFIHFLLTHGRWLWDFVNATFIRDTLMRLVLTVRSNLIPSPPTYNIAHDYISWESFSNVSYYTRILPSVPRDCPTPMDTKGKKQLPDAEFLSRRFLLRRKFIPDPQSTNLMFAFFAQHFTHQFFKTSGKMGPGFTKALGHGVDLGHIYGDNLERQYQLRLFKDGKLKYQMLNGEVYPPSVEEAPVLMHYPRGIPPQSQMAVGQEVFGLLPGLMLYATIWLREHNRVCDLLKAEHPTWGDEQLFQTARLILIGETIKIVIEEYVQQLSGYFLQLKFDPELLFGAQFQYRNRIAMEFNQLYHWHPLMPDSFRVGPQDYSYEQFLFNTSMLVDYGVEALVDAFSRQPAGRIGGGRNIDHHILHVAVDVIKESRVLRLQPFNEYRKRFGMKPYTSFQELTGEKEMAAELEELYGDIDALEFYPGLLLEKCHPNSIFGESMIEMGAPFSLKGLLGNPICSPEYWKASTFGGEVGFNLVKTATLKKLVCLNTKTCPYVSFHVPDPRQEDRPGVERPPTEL
Method: Briefly, COX reactions were performed. […] The prostaglandins were quantified by ELISA.

T2 sequence (Q15303 26-1308): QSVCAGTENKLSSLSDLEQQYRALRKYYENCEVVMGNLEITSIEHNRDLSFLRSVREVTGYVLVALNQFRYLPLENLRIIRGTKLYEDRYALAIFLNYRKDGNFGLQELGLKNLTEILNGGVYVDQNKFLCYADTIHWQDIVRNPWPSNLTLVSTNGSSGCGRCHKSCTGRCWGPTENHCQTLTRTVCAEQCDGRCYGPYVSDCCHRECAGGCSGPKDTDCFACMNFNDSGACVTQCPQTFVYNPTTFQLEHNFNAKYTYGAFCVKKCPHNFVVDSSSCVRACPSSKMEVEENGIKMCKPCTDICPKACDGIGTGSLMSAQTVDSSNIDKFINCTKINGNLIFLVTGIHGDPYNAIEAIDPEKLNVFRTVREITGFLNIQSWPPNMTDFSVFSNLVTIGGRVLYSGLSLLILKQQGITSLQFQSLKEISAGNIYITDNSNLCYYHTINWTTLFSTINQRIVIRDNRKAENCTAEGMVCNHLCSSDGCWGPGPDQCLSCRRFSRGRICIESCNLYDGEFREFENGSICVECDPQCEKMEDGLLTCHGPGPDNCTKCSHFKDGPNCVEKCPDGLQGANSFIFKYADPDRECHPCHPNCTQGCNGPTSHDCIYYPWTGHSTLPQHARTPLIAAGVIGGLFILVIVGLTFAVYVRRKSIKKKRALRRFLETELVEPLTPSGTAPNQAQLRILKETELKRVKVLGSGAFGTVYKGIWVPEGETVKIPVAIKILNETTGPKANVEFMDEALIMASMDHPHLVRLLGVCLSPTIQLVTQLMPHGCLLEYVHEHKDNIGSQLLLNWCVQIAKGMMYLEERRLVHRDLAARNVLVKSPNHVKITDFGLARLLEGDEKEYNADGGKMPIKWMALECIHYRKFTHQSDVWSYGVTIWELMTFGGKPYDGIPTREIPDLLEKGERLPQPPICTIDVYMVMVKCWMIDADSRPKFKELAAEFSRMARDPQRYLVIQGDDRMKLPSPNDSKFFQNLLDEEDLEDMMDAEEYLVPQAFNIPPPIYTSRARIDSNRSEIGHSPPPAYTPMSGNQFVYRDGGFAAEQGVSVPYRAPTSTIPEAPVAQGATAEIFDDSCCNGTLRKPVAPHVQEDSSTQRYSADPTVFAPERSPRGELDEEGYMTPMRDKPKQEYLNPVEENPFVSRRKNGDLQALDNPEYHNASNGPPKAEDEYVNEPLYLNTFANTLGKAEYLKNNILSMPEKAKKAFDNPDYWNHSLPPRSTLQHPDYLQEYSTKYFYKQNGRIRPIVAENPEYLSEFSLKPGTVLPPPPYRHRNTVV
T4 sequence (P04626 23-1255): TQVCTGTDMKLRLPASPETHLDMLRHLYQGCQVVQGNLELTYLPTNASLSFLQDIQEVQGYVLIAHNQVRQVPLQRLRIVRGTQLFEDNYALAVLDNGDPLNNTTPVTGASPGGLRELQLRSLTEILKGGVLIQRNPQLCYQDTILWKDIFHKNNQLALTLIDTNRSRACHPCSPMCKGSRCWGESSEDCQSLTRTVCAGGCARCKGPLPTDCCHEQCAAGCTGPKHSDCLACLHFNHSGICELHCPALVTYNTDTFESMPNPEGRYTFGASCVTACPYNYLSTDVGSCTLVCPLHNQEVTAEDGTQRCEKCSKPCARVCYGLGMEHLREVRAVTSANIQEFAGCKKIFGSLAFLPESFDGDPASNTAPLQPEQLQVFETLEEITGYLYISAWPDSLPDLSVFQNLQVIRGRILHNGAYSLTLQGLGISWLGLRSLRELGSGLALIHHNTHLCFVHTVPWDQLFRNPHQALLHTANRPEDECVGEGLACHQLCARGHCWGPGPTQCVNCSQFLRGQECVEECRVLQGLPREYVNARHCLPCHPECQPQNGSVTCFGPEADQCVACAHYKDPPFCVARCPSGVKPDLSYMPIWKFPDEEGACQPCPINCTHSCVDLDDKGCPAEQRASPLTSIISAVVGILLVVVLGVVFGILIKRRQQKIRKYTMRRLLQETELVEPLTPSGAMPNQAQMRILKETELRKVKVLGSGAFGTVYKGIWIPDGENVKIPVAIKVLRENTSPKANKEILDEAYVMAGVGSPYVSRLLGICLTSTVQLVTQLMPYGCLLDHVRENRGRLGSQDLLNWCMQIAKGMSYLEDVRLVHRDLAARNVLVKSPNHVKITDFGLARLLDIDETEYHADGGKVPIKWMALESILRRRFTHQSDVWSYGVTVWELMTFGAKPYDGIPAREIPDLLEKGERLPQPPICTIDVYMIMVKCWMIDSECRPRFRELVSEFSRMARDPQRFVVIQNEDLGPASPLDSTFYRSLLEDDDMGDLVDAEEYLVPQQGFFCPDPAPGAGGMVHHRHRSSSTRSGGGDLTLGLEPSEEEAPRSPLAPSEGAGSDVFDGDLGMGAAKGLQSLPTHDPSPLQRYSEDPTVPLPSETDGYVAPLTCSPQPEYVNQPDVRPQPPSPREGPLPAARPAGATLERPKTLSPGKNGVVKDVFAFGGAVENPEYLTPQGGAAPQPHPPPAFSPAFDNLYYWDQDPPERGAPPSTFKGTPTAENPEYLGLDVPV
T6 sequence (P16234 24-1089): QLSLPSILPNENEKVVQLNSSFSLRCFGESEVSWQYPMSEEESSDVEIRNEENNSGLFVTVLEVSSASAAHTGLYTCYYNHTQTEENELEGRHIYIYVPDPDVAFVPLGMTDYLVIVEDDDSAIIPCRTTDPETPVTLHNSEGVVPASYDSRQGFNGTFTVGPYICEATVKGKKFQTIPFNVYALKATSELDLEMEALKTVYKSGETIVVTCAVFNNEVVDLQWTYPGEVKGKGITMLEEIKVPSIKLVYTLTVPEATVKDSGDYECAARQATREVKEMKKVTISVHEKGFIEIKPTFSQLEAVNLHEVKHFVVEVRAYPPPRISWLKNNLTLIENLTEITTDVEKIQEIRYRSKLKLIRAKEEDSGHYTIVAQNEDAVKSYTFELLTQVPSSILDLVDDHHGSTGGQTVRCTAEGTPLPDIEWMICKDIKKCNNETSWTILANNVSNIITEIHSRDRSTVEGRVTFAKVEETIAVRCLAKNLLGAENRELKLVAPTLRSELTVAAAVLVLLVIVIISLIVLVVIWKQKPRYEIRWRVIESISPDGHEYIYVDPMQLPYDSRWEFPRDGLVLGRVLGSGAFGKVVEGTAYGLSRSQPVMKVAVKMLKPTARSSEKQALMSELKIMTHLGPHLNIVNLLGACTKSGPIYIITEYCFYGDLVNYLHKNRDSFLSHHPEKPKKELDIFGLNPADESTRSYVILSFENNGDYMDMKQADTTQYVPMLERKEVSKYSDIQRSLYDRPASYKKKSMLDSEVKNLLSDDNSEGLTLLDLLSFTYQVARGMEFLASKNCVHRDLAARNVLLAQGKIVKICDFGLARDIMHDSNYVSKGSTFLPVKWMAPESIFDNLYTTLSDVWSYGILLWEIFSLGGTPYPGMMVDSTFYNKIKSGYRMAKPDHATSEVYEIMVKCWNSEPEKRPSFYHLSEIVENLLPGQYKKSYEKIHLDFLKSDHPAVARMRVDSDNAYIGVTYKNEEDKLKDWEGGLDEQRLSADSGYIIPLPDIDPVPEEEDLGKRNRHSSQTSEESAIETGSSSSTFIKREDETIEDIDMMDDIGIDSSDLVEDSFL
T1 sequence (P09619 33-1106): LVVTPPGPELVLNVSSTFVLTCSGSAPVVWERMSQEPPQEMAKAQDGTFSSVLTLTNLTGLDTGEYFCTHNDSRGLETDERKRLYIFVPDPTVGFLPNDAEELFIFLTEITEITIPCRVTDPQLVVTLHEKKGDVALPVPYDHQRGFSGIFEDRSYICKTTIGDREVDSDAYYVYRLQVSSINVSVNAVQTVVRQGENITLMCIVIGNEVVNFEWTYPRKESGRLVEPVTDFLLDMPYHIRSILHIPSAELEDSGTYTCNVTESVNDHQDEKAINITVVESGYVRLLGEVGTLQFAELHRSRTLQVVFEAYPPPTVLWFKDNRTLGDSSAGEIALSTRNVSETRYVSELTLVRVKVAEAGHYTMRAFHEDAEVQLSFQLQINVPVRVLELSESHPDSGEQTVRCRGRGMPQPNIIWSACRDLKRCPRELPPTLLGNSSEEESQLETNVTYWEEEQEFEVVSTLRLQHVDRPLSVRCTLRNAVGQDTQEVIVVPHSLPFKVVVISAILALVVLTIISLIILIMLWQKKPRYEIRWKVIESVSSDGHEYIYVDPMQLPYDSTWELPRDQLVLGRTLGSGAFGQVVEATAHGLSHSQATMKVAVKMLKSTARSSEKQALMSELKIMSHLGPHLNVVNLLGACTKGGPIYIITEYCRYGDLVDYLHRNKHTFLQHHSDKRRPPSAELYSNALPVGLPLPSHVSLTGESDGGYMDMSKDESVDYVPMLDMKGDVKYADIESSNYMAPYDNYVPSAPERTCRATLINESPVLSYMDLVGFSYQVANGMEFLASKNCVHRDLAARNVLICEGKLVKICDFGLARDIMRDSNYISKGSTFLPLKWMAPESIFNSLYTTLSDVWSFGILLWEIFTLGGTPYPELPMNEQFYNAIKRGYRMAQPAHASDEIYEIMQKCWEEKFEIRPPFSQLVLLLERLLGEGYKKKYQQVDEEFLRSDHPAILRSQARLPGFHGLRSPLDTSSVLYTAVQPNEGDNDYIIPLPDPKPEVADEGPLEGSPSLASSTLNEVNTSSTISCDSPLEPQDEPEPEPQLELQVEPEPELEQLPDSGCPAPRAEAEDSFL

| melting point | Structure (SMILES) | IC50 [1] | IC50 [2] | IC50 [3] | IC50 [4] | IC50 [5] | further results |
| --- | --- | --- | --- | --- | --- | --- | --- |
|  | O=C(CSc1nnc(Cc2c[nH]c3ccccc23)o1)Nc1nc2ccccc2s1 [Compound 2a, 2-[(5-((1H-Indol-3-yl)methyl)-1,3,4-oxadiazol-2-yl)thio]-N-(benzothiazol-2-yl)acetamide] | 40.4 ± 7.74 µM | 17.7 ± 3.59 µM | > 300 µM | 26.2 ± 1.75 µM | 65.1 ± 10.1 µM |  |
|  | O=C(CSc1nnc(Cc2c[nH]c3ccccc23)o1)Nc1nc2ccc(Cl)cc2s1 [Compound 2b, 2-[(5-((1H-Indol-3-yl)methyl)-1,3,4-oxadiazol-2-yl)thio]-N-(6-chlorobenzothiazol-2-yl)acetamide] | 60.7 ± 9.48 µM |  |  | > 100 µM | 37.6 ± 5.62 µM |  |
| 240.6 to 241.5 °C | O=C(CSc1nnc(Cc2c[nH]c3ccccc23)o1)Nc1nc2ccc(Br)cc2s1 [Compound 2c, 2-[(5-((1H-Indol-3-yl)methyl)-1,3,4-oxadiazol-2-yl)thio]-N-(6-bromobenzothiazol-2-yl)acetamide] | 24.9 ± 1.96 µM |  |  | > 100 µM | 48.5 ± 5.78 µM |  |
|  | Cc1ccc2nc(NC(=O)CSc3nnc(Cc4c[nH]c5ccccc45)o3)sc2c1 [Compound 2d, 2-[(5-((1H-Indol-3-yl)methyl)-1,3,4-oxadiazol-2-yl)thio]-N-(6-methylbenzothiazol-2-yl)acetamide] | 36.9 ± 5.43 µM | 21.1 ± 1.85 µM | > 300 µM | 18.2 ± 1.19 µM | 30.2 ± 3.12 µM |  |
|  | CCOc1ccc2nc(NC(=O)CSc3nnc(Cc4c[nH]c5ccccc45)o3)sc2c1 [Compound 2e, 2-[(5-((1H-Indol-3-yl)methyl)-1,3,4-oxadiazol-2-yl)thio]-N-(6-ethoxybenzothiazol-2-yl)acetamide] | 9.62 ± 1.14 µM | 6.45 ± 1.02 µM | > 300 µM | 6.43 ± 0.72 µM |  | IC50 (PDGFRβ): 6.16 ± 1.58 µM; IC50 (HER4): 8.22 ± 1.64 µM; IC50 (EGFR): 2.8 ± 0.52 µM; IC50 (HER2): > 30 µM; IC50 (KDR): > 30 µM; apoptosis (apoptotic cells) (HCT116 cells): 28.35%; late apoptotic or necrotic effects (HCT116 cells): 9.81%; IC50 (PDGFRα): > 30 µM; IC50 (IGF1R): > 30 µM; IC50 (InsR): 29.1 ± 4.66 µM; IC50 (COX-1): 73.5 ± 2.12 µM |
|  | O=C(CSc1nnc(Cc2c[nH]c3ccccc23)o1)Nc1nc2ccc([N+](=O)[O-])cc2s1 [Compound 2f, 2-[(5-((1H-Indol-3-yl)methyl)-1,3,4-oxadiazol-2-yl)thio]-N-(6-nitrobenzothiazol-2-yl)acetamide] | > 100 µM |  |  | > 100 µM | > 100 µM |  |
| 177.4 to 178.2 °C | O=C(CSc1nnc(Cc2c[nH]c3ccccc23)o1)Nc1nccs1 [Compound 2g, 2-[(5-((1H-Indol-3-yl)methyl)-1,3,4-oxadiazol-2-yl)thio]-N-(thiazol-2-yl)acetamide] | > 100 µM |  |  | > 100 µM | > 100 µM |  |
| 233.9 to 234.5 °C | O=C(CSc1nnc(Cc2c[nH]c3ccccc23)o1)Nc1ncc([N+](=O)[O-])s1 [Compound 2h, 2-[(5-((1H-Indol-3-yl)methyl)-1,3,4-oxadiazol-2-yl)thio]-N-[5-nitrothiazol-2-yl]acetamide] | > 100 µM |  |  | > 100 µM | > 100 µM |  |
| 158 to 158.6 °C | CCOC(=O)Cc1csc(NC(=O)CSc2nnc(Cc3c[nH]c4ccccc34)o2)n1 [Compound 2i, 2-[(5-((1H-Indol-3-yl)methyl)-1,3,4-oxadiazol-2-yl)thio]-N-[4-(ethoxycarbonylmethyl)thiazol-2-yl]acetamide] | 71.9 ± 10.3 µM |  |  | > 100 µM | 95.9 ± 12.4 µM |  |
|  | C#Cc1cccc(Nc2ncnc3cc(OCCOC)c(OCCOC)cc23)c1 [Erlotinib, reference compound] | 19.4 ± 2.38 µM | 9.47 ± 2.15 µM | 45.7 ± 8.88 µM |  | 23.8 ± 4.17 µM | apoptosis (apoptotic cells) (HCT116 cells): 7.42%; late apoptotic or necrotic effects (HCT116 cells): 10.45% |
